Results on 2 compounds are retold here after patent publication US20200022964A1, “COMPOSITIONS AND METHODS FOR TREATMENT OF INFLAMMATORY AUTOIMMUNE DISEASES” (New York University, priority 2018, published 2020).

The subject of one assay is TNF-α. The experiment in a line: ELISA of TNF-α induced release of IL-1β and IL-6 in BMDMs. Format: cell-based, mice. Conditions: TNF-α 10 ng/mL; for TNF-α induced releases of IL-1β and IL-6: FFD 1, 10 μM, TFD 0.1, 1 μM, 48 hours. The protocol:
(§1) Primary bone marrow derived macrophages (BMDMs) extraction. BMDMs were isolated from C57BL/6 and TNF-tg mice. After mice were sacrificed by cervical dislocation, the tibia and femur were isolated and both ends of the bones were cut to open the medullary cavity. Bone marrow cells were collected by centrifuge at 13000 g for 90 seconds and seeded in 6-well plates. Prior to their use in experiments, M-CSF (10 ng/ml, 576406, Biolegend) was added for 6 days to the BMDM culture medium.

In a further assay the test system is CD4+ T cells. The experiment in a line: Spleen CD4+ T cell differentiation in vitro and splenic T cell composition in vivo. The format is cell-based, mice. The protocol:
Spleen CD4^+T cell differentiation. Inducing spleen naive CD4^+T cell differentiation into T cell subsets was performed. Briefly, after preparing the splenic naïve CD4^+T cells from wild-type 8-12 week old C57BL/6 mice, the following cytokines were added to induce naive CD4^+T cell differentiation into T cell subsets: IL-2 (20 ng/mL), IL-12 (15 ng/mL), and anti-IL4 (5 μg/mL) for Thl; IL-2 (20 ng/mL), IL-4 (10 ng/mL), and anti-IFNγ (5 μg/mL) for Th2; IL-6 (20 ng/mL), TGFβ (3 ng/mL), anti-IFNγ (5 μg/mL), and anti-IL4 (5 μg/mL) for Th17; IL-2 (20 ng/mL), TGFβ (15 ng/mL), anti-IFNγ (5 μg/mL), and anti-IL4 (5 μg/mL) for Treg. […] Before collecting cells for fluorescence staining, 1 μL Golgi stop from Fixation/Permeabilization Solution Kit with BD GolgiPlug™ (555028,BD Biosciences) was added to each well and incubated in the plate for 4 hours. Cells were stained according to the kit specifications. For each T cell subtype, the combination of fluorescence dyes was as follows: FITC-CD4 (M1004502, Sungene) and Percp-cy5.5-IFNγ (45-7311-82, eBioscience) for Th1; FITC-CD4 and PE-IL4 (554389, BD pharmingen) for Th2; FITC-CD4 and PE-IL-17A (12-7177-81, eBioscience) for Th17; FITC-CD4, PE-CD25 (102008, Biolegend) and Alex-Fluo647-FoxP3 (51-5773-80, eBioscience) for Treg. Then the samples were analyzed at NYU core facilities using a FACS Calibur cell analyzer with CellQuest software. […] Frozen splenic tissue specimens from TNFα Tg mice treated with or without TFD or FFD were stained and analyzed dual immunofluorescence. All sections were permeabilized with 0.1% NP40 in PBS, and then blocked in 5% donkey serum for 30 min at RT, followed by incubated with anti-IFNg (Th1), anti-IL-4 (Th2), anti-IL17 (Th17) and anti-foxp3 (Treg) diluted in 5% donkey serum at 4° C. overnight. On the second day, after washed 3 times in PBS, the sections were incubated with Cy2-conjugated donkey anti-rat IgG for 30 min at RT. After wash, the sections were furthered stained with FITC conjugated anti-CD4 for I hour at RT. To determine the macrophage polarization, sections were double stained with anti-CD68 and iNOS (M1) or CD206 (M2). DAPI were used to stain the nuclei. The fluorescence intensity of cells was quantified by Image J software.

The next assay deals with TNF-α and TNFR1 (Homo sapiens, UniProt P19438). The experiment in a line: Solid phase binding of TNF-α to TNFR1. The protocol:
Solid phase binding. […] Briefly, a 96-well ELISA plate was coated with 100 μL of 0.5 ng/μL TNFR1 at 4° C. overnight. The plate was washed with PBST 5 times, and 300 μL blocking buffer was added to each well followed by incubation at room temperature for 1 hour. After discarding the blocking buffer, 50 μL buffer containing drugs at concentrations ranging from 0.1 nM to 10^5 nM were added to the plate for 1 hour at room temperature. Three wells incubated with bovine serum albumin (BSA) served as negative controls and three wells containing TNF-α were set as positive controls. Without washing, 50 μL buffer containing 10 ng biotin-labeled TNF-α was added to each well and incubated at room temperature for 2 hours. The plate was washed and 100 μL buffer containing streptavidin-HPR was added and incubated at room temperature for 30 minutes. After a final wash, 100 μL TMB buffer was added to each well and the reaction was stopped when the positive control group turned blue. The plate was read by automatic plate reader at 450 nm.

The target in another assay is T1, cPLA2 (Mus musculus, UniProt P47713).
T1 sequence (P47713 1-748): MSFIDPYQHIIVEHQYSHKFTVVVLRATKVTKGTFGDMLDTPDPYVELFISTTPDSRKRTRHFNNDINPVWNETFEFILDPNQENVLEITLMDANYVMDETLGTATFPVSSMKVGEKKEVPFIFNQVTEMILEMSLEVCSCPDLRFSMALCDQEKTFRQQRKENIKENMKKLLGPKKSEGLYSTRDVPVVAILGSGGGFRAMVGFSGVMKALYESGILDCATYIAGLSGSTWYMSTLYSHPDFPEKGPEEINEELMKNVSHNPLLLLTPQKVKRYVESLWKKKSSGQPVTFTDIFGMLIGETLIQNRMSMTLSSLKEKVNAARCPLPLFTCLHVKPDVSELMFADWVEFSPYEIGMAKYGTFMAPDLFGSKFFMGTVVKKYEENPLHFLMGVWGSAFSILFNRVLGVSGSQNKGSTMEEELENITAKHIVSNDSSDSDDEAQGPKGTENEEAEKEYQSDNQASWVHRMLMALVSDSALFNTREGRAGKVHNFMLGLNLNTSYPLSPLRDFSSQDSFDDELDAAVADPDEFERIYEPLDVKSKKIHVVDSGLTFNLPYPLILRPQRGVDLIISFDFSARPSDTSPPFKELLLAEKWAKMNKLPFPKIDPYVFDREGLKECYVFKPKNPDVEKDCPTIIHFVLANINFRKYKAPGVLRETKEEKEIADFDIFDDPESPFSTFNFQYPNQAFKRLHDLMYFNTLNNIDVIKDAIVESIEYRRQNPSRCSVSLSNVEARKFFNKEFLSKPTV
The assay can be described thus: Western blot of TNF activated phosphorylation of cPLA2 on Ser-505 in BMDMs. The format is cell-based, mice. Further details: endogenous in cells; host or cells: mouse bone marrow derived macrophages (BMDMs). The conditions noted are these: TNF-α 10 ng/mL; FFD 10 μM. The protocol:
as §1
Western blot. After protein samples were prepared, samples were separated by SDS-PAGE and transferred to a nitrocellulose (NC) membrane (162-0115, BIO-RAD) using a wet transfer system. Membrane was blocked in 5% (w/v) non-fat milk in TBST for half an hour at room temperature, followed by incubation with appropriate primary antibody overnight at 4° C. After washing, appropriate secondary antibody was added for 1 hour at room temperature. The bands on the membrane were developed by chemiluminescent (ECL) substrate and visualized by GelDoc system.

Sequence of TNF-α and TNFR1 (P19438 30-211 limits assumed, species assumed): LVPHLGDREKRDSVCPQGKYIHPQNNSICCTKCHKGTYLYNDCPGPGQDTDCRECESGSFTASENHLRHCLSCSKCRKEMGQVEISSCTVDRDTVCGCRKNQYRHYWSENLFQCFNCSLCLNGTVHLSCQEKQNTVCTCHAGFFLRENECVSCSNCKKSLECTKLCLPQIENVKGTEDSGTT

`CC(C)(C)c1ccc(C(O)CCCN2CCC(C(O)(c3ccccc3)c3ccccc3)CC2)cc1` (stereo not shown) [terfenadine]: the “TNF-α induced releases of IL-1β and IL-6” value in the assay with TNF-α is reported as “abolished”. Moreover, in the assay with CD4+ T cells, the “differentiation of IFNγ-positive Th1 subpopulation” value is given as “significantly suppressed”; the “differentiation of Th2, Th17 and regulatory T cells” value was “negligible effects”. Moreover, at TNF-α and TNFR1, the “binding of TNF-α to TNFR1 in vitro” value is reported as “did not affect”.

As for `CC(C)(C(=O)O)c1ccc(C(O)CCCN2CCC(C(O)(c3ccccc3)c3ccccc3)CC2)cc1` (stereo not shown) [fexofenadine], the “effect of AA supplementation on inhibition of TNF-α induced release of IL-1β and IL6” value in the assay with TNF-α (AA 10 μM, FFD 10 μM) is given as “eliminated the inhibitory influence”. The “TNF-α induced releases of IL-1β and IL-6” value with TNF-α was “abolished”. For the same compound, in the assay with CD4+ T cells, the “differentiation of IFNγ-positive Th1 subpopulation” value was “significantly suppressed”; the “differentiation of Th2, Th17 and regulatory T cells” value is recorded as “negligible effects”. The “phosphorylation of cPLA2 on Ser-505” value at cPLA2 was “abolished”. For the same compound, the “binding of TNF-α to TNFR1 in vitro” value on TNF-α and TNFR1 is “did not affect”.
